Measurements as given in the supplement of paper PMC10307832.

How the values were obtained:
Assay in all cases: relative viability (nuclei count vs DMSO), 5 days (fraction); higher = more cells survive
Omipalisib + Bortezomib = compound: COc1ncc(-c2ccc3nccc(-c4ccnnc4)c3c2)cc1NS(=O)(=O)c1ccc(F)cc1F [Omipalisib] + CC(C)C[C@H](NC(=O)[C@H](Cc1ccccc1)NC(=O)c1cnccn1)B(O)O [Bortezomib] (partner 0.002 µM)
Summary of the method: (§1)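 Lung cancer cell lines were seeded in 1536-well plates and dosed by pin tool the next day, with either a single drug or a fixed anchor-drug dose combined with five library-drug doses (not always all listed) spaced in √10 steps. Five days later, one step fixed the cells and stained their nuclei (final 0.05% Triton X-100, 1% formaldehyde, 1 ug/ml Hoechst), and nuclei were counted on 4× images. Relative viability is the nuclei count in treated wells divided by the count in vehicle wells, and each value is the median of duplicate plates.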

Omipalisib + Foretinib = compound: COc1ncc(-c2ccc3nccc(-c4ccnnc4)c3c2)cc1NS(=O)(=O)c1ccc(F)cc1F [Omipalisib] + COc1cc2c(Oc3ccc(NC(=O)C4(C(=O)Nc5ccc(F)cc5)CC4)cc3F)ccnc2cc1OCCCN1CCOCC1 [Foretinib] (partner 0.25 µM)
Summary of the method: as §1

Omipalisib + OSI-027 = compound: COc1ncc(-c2ccc3nccc(-c4ccnnc4)c3c2)cc1NS(=O)(=O)c1ccc(F)cc1F [Omipalisib] + COc1cccc2cc(-c3nc([C@H]4CC[C@H](C(=O)O)CC4)n4ncnc(N)c34)[nH]c12 [OSI-027] (partner 0.5 µM)
Summary of the method: as §1

Omipalisib + Lapatinib = compound: COc1ncc(-c2ccc3nccc(-c4ccnnc4)c3c2)cc1NS(=O)(=O)c1ccc(F)cc1F [Omipalisib] + CS(=O)(=O)CCNCc1ccc(-c2ccc3ncnc(Nc4ccc(OCc5cccc(F)c5)c(Cl)c4)c3c2)o1 [Lapatinib] (partner 2 µM)
Summary of the method: as §1

Omipalisib + Pictilisib = compound: COc1ncc(-c2ccc3nccc(-c4ccnnc4)c3c2)cc1NS(=O)(=O)c1ccc(F)cc1F [Omipalisib] + CS(=O)(=O)N1CCN(Cc2cc3nc(-c4cccc5[nH]ncc45)nc(N4CCOCC4)c3s2)CC1 [Pictilisib] (partner 1 µM)
Summary of the method: as §1

Omipalisib + Dasatinib = compound: COc1ncc(-c2ccc3nccc(-c4ccnnc4)c3c2)cc1NS(=O)(=O)c1ccc(F)cc1F [Omipalisib] + Cc1nc(Nc2ncc(C(=O)Nc3c(C)cccc3Cl)s2)cc(N2CCN(CCO)CC2)n1 [Dasatinib] (partner 0.075 µM)
Summary of the method: as §1

| Cell Line | relative viability (Omipalisib + Bortezomib; first compound 0.0003 µM) | relative viability (Omipalisib + Bortezomib; first compound 0.003 µM) | relative viability (Omipalisib + Bortezomib; first compound 0.03 µM) | relative viability (Omipalisib + Foretinib; first compound 0.0003 µM) | relative viability (Omipalisib + Foretinib; first compound 0.003 µM) | relative viability (Omipalisib + Foretinib; first compound 0.03 µM) | relative viability (Omipalisib + OSI-027; first compound 0.0003 µM) | relative viability (Omipalisib + OSI-027; first compound 0.003 µM) | relative viability (Omipalisib + OSI-027; first compound 0.03 µM) | relative viability (Omipalisib + Lapatinib; first compound 0.0003 µM) | relative viability (Omipalisib + Lapatinib; first compound 0.003 µM) | relative viability (Omipalisib + Lapatinib; first compound 0.03 µM) | relative viability (Omipalisib + Pictilisib; first compound 0.0003 µM) | relative viability (Omipalisib + Pictilisib; first compound 0.003 µM) | relative viability (Omipalisib + Pictilisib; first compound 0.03 µM) | relative viability (Omipalisib + Dasatinib; first compound 0.0003 µM) | relative viability (Omipalisib + Dasatinib; first compound 0.003 µM) | relative viability (Omipalisib + Dasatinib; first compound 0.03 µM) |
| --- | --- | --- | --- | --- | --- | --- | --- | --- | --- | --- | --- | --- | --- | --- | --- | --- | --- | --- |
| NCI-H727 | 0.841 | 0.591 | 0.511 | 0.937 | 0.609 | 0.421 | 0.596 | 0.439 | 0.393 | 0.723 | 0.776 | 0.674 | 0.321 | 0.361 | 0.231 | 0.353 | 0.327 | 0.366 |
| PC-14 | 0.822 | 0.991 | 0.646 | 0.904 | 0.961 | 0.967 | 0.761 | 0.529 | 0.435 | 0.308 | 0.228 | 0.162 | 0.749 | 0.619 | 0.383 | 0.31 | 0.237 | 0.079 |
